Values of other authors, collected in US20260092327A1, “METHODS OF MONITORING MUTATIONS IN TREATMENT OF COLORECTAL CANCER” (Cardiff Oncology, Inc., priority 2022, published 2026).

How the values were obtained:
[1] = system: advanced/metastatic solid tumors
[2] = system: cancer cell lines
[3] = biological target: PLK1 (Homo sapiens, UniProt P53350); conditions: among a panel of 296 kinases, including other PLK members
[4] = system: cell lines from solid and hematologic tumors; conditions: large number of cell lines
[5] = system: HT29 human colon adenocarcinoma xenografts; conditions: compared to each agent alone
[6] = system: xenograft tumor; conditions: well tolerated doses in mice after oral administration
[7] = system: disseminated model of AML
[8] = system: HCT-116 KRAS-mutant CRC xenograft; conditions: HCT-116 KRAS-mutant CRC xenograft model
[9] = adult subjects with advanced/metastatic solid tumors, single agent

Chain of PLK1 (P53350 whole entry): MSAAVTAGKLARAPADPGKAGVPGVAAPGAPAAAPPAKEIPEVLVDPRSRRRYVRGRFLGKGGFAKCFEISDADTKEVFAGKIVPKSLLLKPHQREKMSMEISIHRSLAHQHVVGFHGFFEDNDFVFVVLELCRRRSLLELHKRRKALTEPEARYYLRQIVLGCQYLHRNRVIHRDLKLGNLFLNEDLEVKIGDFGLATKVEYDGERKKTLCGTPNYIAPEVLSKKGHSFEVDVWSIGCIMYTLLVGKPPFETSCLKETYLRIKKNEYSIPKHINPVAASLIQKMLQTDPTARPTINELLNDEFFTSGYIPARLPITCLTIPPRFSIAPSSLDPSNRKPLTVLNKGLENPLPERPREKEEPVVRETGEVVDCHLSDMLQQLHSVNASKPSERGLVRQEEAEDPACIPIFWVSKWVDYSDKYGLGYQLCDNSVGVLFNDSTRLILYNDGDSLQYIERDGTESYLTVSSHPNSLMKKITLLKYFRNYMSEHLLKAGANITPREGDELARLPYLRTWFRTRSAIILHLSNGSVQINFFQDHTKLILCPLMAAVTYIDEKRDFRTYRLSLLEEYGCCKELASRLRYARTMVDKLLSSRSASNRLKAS

Question: What does the source list for `CN1CCN(c2ccc(OC(F)(F)F)c(Nc3ncc4c(n3)-c3c(c(C(N)=O)nn3CCO)CC4)c2)CC1` [Onvansertib, 1-(2-hydroxyethyl)-8-{[5-(4-methylpiperazin-1-yl)-2-(trifluoromethoxy)phenyl]amino}-4,5-dihydro-1H-pyrazolo[4,3-h]quinazoline-3-carboxamide]?
Answer: evaluable patients with stable disease [1, 9]: 5 of 16; recommended phase 2 dose [1, 9]: 24 mg/m^2; primary dose-limiting toxicities ([1]; patients with advanced/metastatic solid tumors): neutropenia and thrombocytopenia; recovery of hematologic toxicities ([1]; toxicities reversible): ≤ 3 weeks; effect on cell cycle [2]: mitotic cell-cycle arrest followed by apoptosis; specificity for PLK1 [3]: high specificity; potency in proliferation assays [4]: low nanomolar activity; tumor regression in combination with irinotecan [5]: enhanced tumor regression; xenograft tumor growth [6]: inhibits xenograft tumor growth; survival of animals in combination with cytarabine [7]: prolonged survival; half-life (in vivo): about 24 hours; oral bioavailability (rodent and nonrodent species): good oral bioavailability; anti-tumor activity as single agent [8]: potent anti-tumor activity; combination effect with 5-FU [8]: synergy; combination effect with irinotecan [8]: synergy
